From patent US7709701B2, “Genetic manipulation of condensed tannins” (The Samuel Roberts Noble Foundation, priority 2004, dated 2010)

What was measured:
[1] = target: AtBAN (Arabidopsis thaliana BAN) protein (Arabidopsis thaliana, UniProt Q9SEV0); format: biochemical; settings: for Products formed on incubation with AtBAN protein extract: NADPH as coenzyme, 4-month old frozen protein extracts, HPLC
[2] = test system: MtBAN (Medicago truncatula BAN homolog) protein; experiment: Anthocyanidin reductase activity assay with recombinant MtBAN protein extract (HPLC of products); format: biochemical; settings: for Products formed on incubation with MtBAN protein extract: NADPH, 100 mM Tris-HCl pH 7.0, 30° C., 30 min, HPLC
anthocyanidin reductase [3] = experiment: Anthocyanidin reductase assay with desalted crude enzyme from Desmodium uncinatum flowers, leaves and young pods; format: biochemical; settings: 1 mM NADPH, 100 μM cyanidin, 30° C., 30 min
Description: (§1) Lotus corniculatus, Desmodium uncinatum and Barley cv. Morex were grown in a greenhouse. Young leaves from L. corniculatus, unexpanded leaves, and young pods as well as open flowers and flower buds from D. uncinatum, and young grains from Barley were collected. Seed testas of barley grains were excised and pooled together for enzyme extraction. Mature grape fruit stored at −80° C. was treated in pH 7 100 mM Tris.HCl buffer for 30 seconds for isolating the skin for enzyme extraction.
(§2) A fresh one-gram leaf sample of L. corniculatus, one-gram testa from barley, and 9 grams of grape fruit skin, as well as two grams of flowers, 3 grams of young pods and 3 grams of young unexpanded leaves from Desmodium uncinatum, were independently ground into fine powders in liquid nitrogen. The follow buffer systems were used for enzyme extraction. Extraction buffer 1: pH 7 100 mM Tris.HCl, 10% glycerol and 2 mM 1,4-dithiothreitol; Extraction buffer 2: pH 8 50 mM phosphate buffer, 10% glycerol, 1.5% polyethyleneglycol 4000 (PEG-4000), 2 mM pH 8.0 Na-EDTA, 25 mM sodium ascorbate, 20 mM β-mecaptoenthanol, and 5 mM 1,4-dithiothreitol; Extraction buffer 3: pH 8 100 mM Tris.HCl, 10% glycerol 1.5% polyethyleneglycerol 4000 (PEG-4000), 2 mM pH 8.0 Na-EDTA, 25 mM sodium ascorbate, 80 mM β-mecaptoenthanol, and 5 mM 1,4-dithiothreitol. […]

anthocyanidin reductase [4] = experiment: Anthocyanidin reductase assay with desalted crude enzyme from Lotus corniculatus leaves; format: biochemical; settings: 1 mM NADPH, 100 μM cyanidin, 30° C., 30 min
Description: as §1, §2

anthocyanidin reductase [5] = target: T1, anthocyanidin reductase (Vitis vinifera, UniProt Q5FB34); experiment: Anthocyanidin reductase assay with desalted crude enzyme from grape fruit skin; format: biochemical; settings: 1 mM NADPH, 100 μM cyanidin, 30° C., 30 min
T1 construct: 100 μM cyanidin and 50-25 μg desalted crude enzyme; from tissue; host or cells: skin of mature grape fruit
Description: as §1, §2

anthocyanidin reductase [6] = experiment: Anthocyanidin reductase assay with desalted crude enzyme from barley testa; format: biochemical, Hordeum vulgare; settings: 1 mM NADPH, 100 μM cyanidin, 30° C., 30 min
Description: as §1, §2

[7] = reactions containing leucoanthocyanidins

Sequence of AtBAN (Arabidopsis thaliana BAN) protein (Q9SEV0 other isoform, or with tags, fused parts or gaps K55Q/I146L/V156I/E157D/T179K/K185E): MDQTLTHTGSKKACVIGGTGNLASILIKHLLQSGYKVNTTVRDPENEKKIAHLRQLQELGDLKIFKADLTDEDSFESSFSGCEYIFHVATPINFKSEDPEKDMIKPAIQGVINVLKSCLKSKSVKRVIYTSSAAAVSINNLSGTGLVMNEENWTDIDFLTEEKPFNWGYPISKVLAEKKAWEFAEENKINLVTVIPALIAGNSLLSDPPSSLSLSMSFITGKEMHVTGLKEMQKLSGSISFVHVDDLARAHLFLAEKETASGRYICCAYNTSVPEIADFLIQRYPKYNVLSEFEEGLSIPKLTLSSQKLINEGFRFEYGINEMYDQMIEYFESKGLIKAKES
T1 sequence (Q5FB34 whole entry R248Q): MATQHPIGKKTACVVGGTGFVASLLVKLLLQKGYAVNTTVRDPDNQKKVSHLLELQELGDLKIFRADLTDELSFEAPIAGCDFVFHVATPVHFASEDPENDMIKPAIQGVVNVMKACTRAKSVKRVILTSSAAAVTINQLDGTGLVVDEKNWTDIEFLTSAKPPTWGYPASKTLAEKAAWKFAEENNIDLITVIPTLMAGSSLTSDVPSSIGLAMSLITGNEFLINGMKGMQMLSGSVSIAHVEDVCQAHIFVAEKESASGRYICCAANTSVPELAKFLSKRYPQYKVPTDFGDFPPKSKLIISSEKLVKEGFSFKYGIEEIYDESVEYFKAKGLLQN

Compound	Products formed on incubation with AtBAN protein extract [1]	Products formed on incubation with MtBAN protein extract [2]	other results
Oc1cc(O)c2c(c1)O[C@H](c1ccc(O)c(O)c1)[C@@H](O)C2 [(+)-catechin]	does not produce (2S,3R) configuration (−) catechin or (−)epicatechin	does not produce (2S,3R) configuration (−) catechin or (−)epicatechin	
Oc1cc(O)c2c(c1)O[C@H](c1ccc(O)c(O)c1)[C@H](O)C2 [(−)epicatechin, (−)-epicatechin]	does not produce (2S,3R) configuration (−) catechin or (−)epicatechin	does not produce (2S,3R) configuration (−) catechin or (−)epicatechin	
NC(=O)C1=CN([C@@H]2O[C@H](COP(=O)(O)OP(=O)(O)OC[C@H]3O[C@@H](n4cnc5c(N)ncnc54)[C@H](O)[C@@H]3O)[C@@H](O)[C@H]2O)C=CC1 [NADH]			Conversion with NADH relative to the level achieved with NADPH ([2]; NADH 2 mM final concentration substituted for NADPH): approximately 50%
Oc1cc(O)c2cc(O)c(-c3ccc(O)c(O)c3)[o+]c2c1.[Cl-] [cyanidin, cyanidin chloride]	catalyze the reduction of cyanidin to epicatechin	reducing cyanidin to the corresponding flavan-3-ols, catechin and epicatechin	Product formed by Desmodium uncinatum flower, leaf and young pod enzyme (anthocyanidin reductase [3]): converted cyanidin into epicatechin; Product formed by Lotus corniculatus leaf enzyme (anthocyanidin reductase [4]): converted cyanidin into epicatechin; Product formed by grape fruit skin enzyme (anthocyanidin reductase [5]): converted cyanidin into epicatechin; Product formed by barley testa enzyme (anthocyanidin reductase [6]): converted cyanidin into epicatechin
Oc1cc(O)c2cc(O)c(-c3cc(O)c(O)c(O)c3)[o+]c2c1 [delphinidin, delphinidin chloride]	delphinidin into gallocatechin	catalyzed the reduction of delphinidin into putative gallo-catechin and epi-gallocatechin	
Oc1ccc(-c2[o+]c3cc(O)cc(O)c3cc2O)cc1 [pelargonidin, Pelargonidin chloride]	pelargonidin into epi-alfzelechin	catalyzed the reduction of pelargonidin into a new compound eluting at 33.6 min	
leucoanthocyanidins			LAR activity with recombinant AtBAN [1, 7]: no LAR activity was observed; LAR activity with recombinant MtBAN [2, 7]: no LAR activity was observed
